In ChEMBL document CHEMBL5649169 (ChemMedChem, 2018):

Legend:
[1] = target: Ubiquitin carboxyl-terminal hydrolase 10 (Homo sapiens) (UniProt Q14694); note: assay method not described here
[2] = target: 26S proteasome non-ATPase regulatory subunit 8 (Homo sapiens) (UniProt P48556); note: assay method not described here
[3] = target: Pyruvate dehydrogenase E1 component subunit beta, mitochondrial (Homo sapiens) (UniProt P11177); note: assay method not described here
[4] = target: Casein kinase I isoform gamma-1 (Homo sapiens) (UniProt Q9HCP0); note: assay method not described here
[5] = target: Pre-mRNA-splicing factor SPF27 (Homo sapiens) (UniProt O75934); note: assay method not described here
[6] = target: Peptidyl-prolyl cis-trans isomerase FKBP4 (Homo sapiens) (UniProt Q02790); note: assay method not described here
[7] = target: GTP-binding protein 4 (Homo sapiens) (UniProt Q9BZE4); note: assay method not described here
Ephrin type-A receptor 1 = Ephrin type-A receptor 1 (Homo sapiens, UniProt P21709); assay: Inhibition of Nano Luc-fused full length C-terminal EPHA1 (unknown origin) expressed in HEK293T cells using NanoGlo as substrate incubated for 2 hrs in presence of tracer by NanoBRET assay; format: cell-based
[8] = target: Fatty acid synthase (Homo sapiens) (UniProt P49327); note: assay method not described here
[9] = target: Cilia- and flagella-associated protein 410 (Homo sapiens) (UniProt O43822); note: assay method not described here
[10] = target: Rho GDP-dissociation inhibitor 2 (Homo sapiens) (UniProt P52566); note: assay method not described here
[11] = target: Alpha-internexin (Homo sapiens) (UniProt Q16352); note: assay method not described here
[12] = target: Heterogeneous nuclear ribonucleoproteins C1/C2 (Homo sapiens) (UniProt P07910); note: assay method not described here
[13] = target: Transcription intermediary factor 1-beta (Homo sapiens) (UniProt Q13263); note: assay method not described here
[14] = target: Ribosomal protein S6 kinase alpha-1 (Homo sapiens) (UniProt Q15418); note: assay method not described here
[15] = target: cGMP-dependent protein kinase 1 (Homo sapiens) (UniProt Q13976); note: assay method not described here
[16] = target: Protein phosphatase 1G (Homo sapiens) (UniProt O15355); note: assay method not described here
[17] = target: Small ribosomal subunit protein mS27 (Homo sapiens) (UniProt Q92552); note: assay method not described here
[18] = target: Chloride intracellular channel protein 1 (Homo sapiens) (UniProt O00299); note: assay method not described here
[19] = target: Transport and Golgi organization protein 1 homolog (Homo sapiens) (UniProt Q5JRA6); note: assay method not described here
[20] = target: Telomere length regulation protein TEL2 homolog (Homo sapiens) (UniProt Q9Y4R8); note: assay method not described here
[21] = target: TGF-beta receptor type-2 (Homo sapiens) (UniProt P37173); note: assay method not described here
[22] = target: FACT complex subunit SSRP1 (Homo sapiens) (UniProt Q08945); note: assay method not described here
[23] = target: Mitogen-activated protein kinase kinase kinase 11 (Homo sapiens) (UniProt Q16584); note: assay method not described here
[24] = target: Triosephosphate isomerase (Homo sapiens) (UniProt P60174); note: assay method not described here
[25] = target: Heterogeneous nuclear ribonucleoprotein Q (Homo sapiens) (UniProt O60506); note: assay method not described here
[26] = target: Peroxiredoxin-4 (Homo sapiens) (UniProt Q13162); note: assay method not described here
[27] = target: Mammalian ependymin-related protein 1 (Homo sapiens) (UniProt Q9UM22); note: assay method not described here
[28] = target: Trifunctional enzyme subunit beta, mitochondrial (Homo sapiens) (UniProt P55084); note: assay method not described here
[29] = target: UBX domain-containing protein 1 (Homo sapiens) (UniProt Q04323); note: assay method not described here
[30] = target: Protein cholesin (Homo sapiens) (UniProt Q9BRJ6); note: assay method not described here
[31] = target: Aurora kinase A (Homo sapiens) (UniProt O14965); note: assay method not described here
[32] = target: Serine/threonine-protein kinase Nek7 (Homo sapiens) (UniProt Q8TDX7); note: assay method not described here
[33] = target: Dolichyl-diphosphooligosaccharide--protein glycosyltransferase subunit 2 (Homo sapiens) (UniProt P04844); note: assay method not described here
[34] = target: Succinate dehydrogenase [ubiquinone] flavoprotein subunit, mitochondrial (Homo sapiens) (UniProt P31040); note: assay method not described here
[35] = target: Small ribosomal subunit protein eS27 (Homo sapiens) (UniProt P42677); note: assay method not described here
Malectin (Homo sapiens) = Malectin (Homo sapiens) (UniProt Q14165); note: assay method not described here
[36] = target: AP-3 complex subunit sigma-1 (Homo sapiens) (UniProt Q92572); note: assay method not described here
[37] = target: Inner centromere protein (Homo sapiens) (UniProt Q9NQS7); note: assay method not described here
[38] = target: Coatomer subunit beta (Homo sapiens) (UniProt P53618); note: assay method not described here
[39] = target: Cyclin-dependent kinase 3 (Homo sapiens) (UniProt Q00526); note: assay method not described here
[40] = target: C2 domain-containing protein 5 (Homo sapiens) (UniProt Q86YS7); note: assay method not described here
Homo sapiens [41] = species on record: Homo sapiens; note: assay method not described here
[42] = target: Heterogeneous nuclear ribonucleoprotein A/B (Homo sapiens) (UniProt Q99729); note: assay method not described here
Homo sapiens [43] = species on record: Homo sapiens; remark: listed apart in the source; note: assay method not described here
[44] = target: TNF receptor-associated factor 2 (Homo sapiens) (UniProt Q12933); note: assay method not described here
TNF receptor-associated factor 2 (Homo sapiens), sequence (Q12933 whole entry): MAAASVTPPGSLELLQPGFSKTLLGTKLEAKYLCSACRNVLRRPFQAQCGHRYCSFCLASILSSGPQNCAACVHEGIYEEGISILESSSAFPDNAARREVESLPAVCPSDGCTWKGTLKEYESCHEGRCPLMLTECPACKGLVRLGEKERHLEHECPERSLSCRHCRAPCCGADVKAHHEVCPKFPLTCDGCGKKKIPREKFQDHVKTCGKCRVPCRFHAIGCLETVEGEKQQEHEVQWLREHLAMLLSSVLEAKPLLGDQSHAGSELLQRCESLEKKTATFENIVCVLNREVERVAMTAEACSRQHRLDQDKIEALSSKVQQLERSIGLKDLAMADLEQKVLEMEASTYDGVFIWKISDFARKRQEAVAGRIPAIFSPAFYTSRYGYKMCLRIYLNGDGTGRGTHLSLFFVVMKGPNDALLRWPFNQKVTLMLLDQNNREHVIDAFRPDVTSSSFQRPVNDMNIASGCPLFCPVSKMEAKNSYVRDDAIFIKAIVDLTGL

Peptidyl-prolyl cis-trans isomerase FKBP4 (Homo sapiens), sequence (Q02790 whole entry): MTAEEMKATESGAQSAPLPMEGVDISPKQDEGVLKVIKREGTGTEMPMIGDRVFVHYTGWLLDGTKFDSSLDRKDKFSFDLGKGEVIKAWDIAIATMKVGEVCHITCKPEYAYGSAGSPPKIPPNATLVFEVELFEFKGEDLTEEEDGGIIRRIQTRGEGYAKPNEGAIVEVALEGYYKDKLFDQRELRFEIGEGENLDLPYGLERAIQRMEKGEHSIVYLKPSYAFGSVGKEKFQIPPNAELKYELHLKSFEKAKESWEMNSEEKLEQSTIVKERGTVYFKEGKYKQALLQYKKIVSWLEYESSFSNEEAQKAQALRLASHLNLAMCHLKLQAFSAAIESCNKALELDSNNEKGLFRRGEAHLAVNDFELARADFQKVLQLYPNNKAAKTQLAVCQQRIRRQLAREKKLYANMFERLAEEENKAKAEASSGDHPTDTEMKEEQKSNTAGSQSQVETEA
Heterogeneous nuclear ribonucleoproteins C1/C2 (Homo sapiens), sequence (P07910 whole entry): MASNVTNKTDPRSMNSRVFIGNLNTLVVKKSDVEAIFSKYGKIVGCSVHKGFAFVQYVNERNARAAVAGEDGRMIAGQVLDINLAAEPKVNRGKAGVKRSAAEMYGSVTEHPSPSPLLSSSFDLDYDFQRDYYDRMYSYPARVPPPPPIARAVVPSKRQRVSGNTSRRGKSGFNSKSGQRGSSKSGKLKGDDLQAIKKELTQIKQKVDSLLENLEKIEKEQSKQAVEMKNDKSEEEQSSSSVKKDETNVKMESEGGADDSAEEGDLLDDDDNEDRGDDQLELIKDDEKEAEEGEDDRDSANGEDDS
Trifunctional enzyme subunit beta, mitochondrial (Homo sapiens), sequence (P55084 whole entry, the tested form may be a part): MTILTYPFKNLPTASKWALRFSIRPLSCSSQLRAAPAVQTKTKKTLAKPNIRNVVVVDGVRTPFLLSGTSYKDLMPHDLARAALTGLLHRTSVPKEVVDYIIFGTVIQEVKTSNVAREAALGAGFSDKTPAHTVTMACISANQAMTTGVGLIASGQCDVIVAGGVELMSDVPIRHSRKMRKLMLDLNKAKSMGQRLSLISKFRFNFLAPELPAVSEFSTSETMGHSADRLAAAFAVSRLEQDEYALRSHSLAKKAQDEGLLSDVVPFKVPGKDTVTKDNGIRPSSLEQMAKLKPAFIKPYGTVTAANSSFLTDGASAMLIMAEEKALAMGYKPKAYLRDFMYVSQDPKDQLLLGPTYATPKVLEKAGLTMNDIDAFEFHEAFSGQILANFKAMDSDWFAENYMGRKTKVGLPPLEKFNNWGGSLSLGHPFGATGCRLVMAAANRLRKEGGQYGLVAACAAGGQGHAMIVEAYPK
C2 domain-containing protein 5 (Homo sapiens), sequence (Q86YS7 whole entry, the tested form may be a part): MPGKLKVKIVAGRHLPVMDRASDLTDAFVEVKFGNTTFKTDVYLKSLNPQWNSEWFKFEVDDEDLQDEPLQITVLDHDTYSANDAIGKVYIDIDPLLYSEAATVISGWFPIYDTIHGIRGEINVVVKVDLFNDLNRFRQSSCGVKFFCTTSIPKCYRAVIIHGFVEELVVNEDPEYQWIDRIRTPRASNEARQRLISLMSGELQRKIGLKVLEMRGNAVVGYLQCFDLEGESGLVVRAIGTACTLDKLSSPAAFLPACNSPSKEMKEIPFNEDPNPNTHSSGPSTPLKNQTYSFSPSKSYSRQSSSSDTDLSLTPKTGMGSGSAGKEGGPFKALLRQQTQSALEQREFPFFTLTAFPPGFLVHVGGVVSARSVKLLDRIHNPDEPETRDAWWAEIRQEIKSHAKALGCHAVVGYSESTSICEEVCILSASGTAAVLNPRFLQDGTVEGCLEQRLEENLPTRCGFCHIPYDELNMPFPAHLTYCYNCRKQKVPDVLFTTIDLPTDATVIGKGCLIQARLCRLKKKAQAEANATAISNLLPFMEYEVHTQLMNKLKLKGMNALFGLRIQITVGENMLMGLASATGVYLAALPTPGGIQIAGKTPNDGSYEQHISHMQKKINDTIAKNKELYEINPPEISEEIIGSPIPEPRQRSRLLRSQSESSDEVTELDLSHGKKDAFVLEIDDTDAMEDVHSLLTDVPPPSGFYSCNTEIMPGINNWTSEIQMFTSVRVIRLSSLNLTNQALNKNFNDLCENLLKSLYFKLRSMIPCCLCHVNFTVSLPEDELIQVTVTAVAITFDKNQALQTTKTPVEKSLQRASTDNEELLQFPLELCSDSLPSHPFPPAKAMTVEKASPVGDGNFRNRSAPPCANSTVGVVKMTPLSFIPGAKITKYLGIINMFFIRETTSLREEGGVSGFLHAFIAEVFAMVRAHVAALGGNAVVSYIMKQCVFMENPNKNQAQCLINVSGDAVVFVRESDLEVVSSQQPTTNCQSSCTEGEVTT
Rho GDP-dissociation inhibitor 2 (Homo sapiens), sequence (P52566 whole entry): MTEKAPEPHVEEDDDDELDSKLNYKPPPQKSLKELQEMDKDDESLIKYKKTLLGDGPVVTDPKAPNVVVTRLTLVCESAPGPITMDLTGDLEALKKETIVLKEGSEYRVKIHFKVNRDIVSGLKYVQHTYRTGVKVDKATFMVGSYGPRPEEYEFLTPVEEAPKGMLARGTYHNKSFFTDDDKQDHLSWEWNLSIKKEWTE
Casein kinase I isoform gamma-1 (Homo sapiens), sequence (Q9HCP0 whole entry, looked up, canonical isoform): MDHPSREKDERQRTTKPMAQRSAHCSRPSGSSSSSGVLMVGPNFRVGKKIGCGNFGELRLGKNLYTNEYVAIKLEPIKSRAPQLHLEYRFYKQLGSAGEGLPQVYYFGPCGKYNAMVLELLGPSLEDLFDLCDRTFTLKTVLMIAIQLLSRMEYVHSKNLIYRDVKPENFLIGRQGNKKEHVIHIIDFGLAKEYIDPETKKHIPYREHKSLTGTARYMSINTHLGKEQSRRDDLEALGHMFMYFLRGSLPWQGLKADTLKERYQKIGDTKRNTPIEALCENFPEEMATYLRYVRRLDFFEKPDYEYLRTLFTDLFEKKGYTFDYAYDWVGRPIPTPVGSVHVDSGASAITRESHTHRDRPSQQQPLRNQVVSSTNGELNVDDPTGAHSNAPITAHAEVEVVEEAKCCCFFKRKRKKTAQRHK
Dolichyl-diphosphooligosaccharide--protein glycosyltransferase subunit 2 (Homo sapiens), sequence (P04844 whole entry): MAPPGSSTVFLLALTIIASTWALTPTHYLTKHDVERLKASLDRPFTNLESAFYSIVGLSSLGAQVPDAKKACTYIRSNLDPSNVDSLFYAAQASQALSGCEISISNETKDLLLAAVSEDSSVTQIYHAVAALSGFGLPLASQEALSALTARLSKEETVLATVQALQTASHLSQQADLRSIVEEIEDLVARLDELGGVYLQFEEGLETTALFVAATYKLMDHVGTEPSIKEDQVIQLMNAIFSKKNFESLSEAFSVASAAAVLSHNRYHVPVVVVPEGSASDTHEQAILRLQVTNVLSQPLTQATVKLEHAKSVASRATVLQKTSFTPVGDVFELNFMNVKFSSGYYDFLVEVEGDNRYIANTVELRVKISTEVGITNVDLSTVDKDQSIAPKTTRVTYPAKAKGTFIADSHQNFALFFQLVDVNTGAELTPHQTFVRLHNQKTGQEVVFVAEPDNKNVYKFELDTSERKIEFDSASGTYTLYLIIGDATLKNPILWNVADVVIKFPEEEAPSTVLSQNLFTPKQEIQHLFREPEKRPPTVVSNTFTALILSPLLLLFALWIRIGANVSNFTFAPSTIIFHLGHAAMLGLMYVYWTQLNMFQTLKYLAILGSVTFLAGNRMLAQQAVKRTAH
TGF-beta receptor type-2 (Homo sapiens), sequence (P37173 whole entry): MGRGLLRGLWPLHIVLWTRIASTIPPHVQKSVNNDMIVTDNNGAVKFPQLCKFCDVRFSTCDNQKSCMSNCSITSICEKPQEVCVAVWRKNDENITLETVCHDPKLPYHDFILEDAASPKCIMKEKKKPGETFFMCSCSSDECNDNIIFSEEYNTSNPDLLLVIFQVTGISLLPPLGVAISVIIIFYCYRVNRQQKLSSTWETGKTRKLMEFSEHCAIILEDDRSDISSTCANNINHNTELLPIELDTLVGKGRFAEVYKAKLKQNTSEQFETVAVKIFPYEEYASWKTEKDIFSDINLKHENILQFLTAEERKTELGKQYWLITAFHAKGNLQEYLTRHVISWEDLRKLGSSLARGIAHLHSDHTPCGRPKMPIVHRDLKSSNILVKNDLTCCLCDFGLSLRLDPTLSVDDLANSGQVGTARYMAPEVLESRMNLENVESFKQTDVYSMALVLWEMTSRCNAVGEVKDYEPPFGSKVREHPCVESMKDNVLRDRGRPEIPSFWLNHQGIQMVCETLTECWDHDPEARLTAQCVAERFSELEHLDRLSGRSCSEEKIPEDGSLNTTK
Pyruvate dehydrogenase E1 component subunit beta, mitochondrial (Homo sapiens), sequence (P11177 whole entry, canonical isoform): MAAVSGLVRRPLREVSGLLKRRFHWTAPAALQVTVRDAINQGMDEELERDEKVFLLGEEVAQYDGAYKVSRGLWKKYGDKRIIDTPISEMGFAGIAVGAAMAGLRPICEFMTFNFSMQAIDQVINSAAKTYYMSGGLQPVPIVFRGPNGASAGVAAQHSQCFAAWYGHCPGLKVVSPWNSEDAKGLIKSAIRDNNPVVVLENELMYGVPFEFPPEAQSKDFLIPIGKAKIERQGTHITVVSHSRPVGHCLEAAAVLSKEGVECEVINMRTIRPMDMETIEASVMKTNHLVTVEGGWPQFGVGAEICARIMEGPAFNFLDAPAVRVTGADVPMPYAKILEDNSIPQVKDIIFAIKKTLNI

SMILES: Cc1ccc(C(=O)Nc2cccc(C(F)(F)F)c2)cc1Nc1nc(-c2cccnc2)nc2nn(C)cc12
- ED50 [1]: 38.7 nM
- ED50 [2]: 34.1 nM
- ED50 [3]: 7180 nM
- ED50 [4]: 3410 nM
- ED50 [5]: 954 nM
- ED50 [6]: 546 nM
- ED50 [7]: 593 nM
- IC50 (Ephrin type-A receptor 1): 16800 nM
- ED50 [8]: 107 nM
- ED50 [9]: 574 nM
- ED50 [10]: 26600 nM
- ED50 [11]: 1700 nM
- ED50 [12]: 7540 nM
- ED50 [13]: 78.7 nM
- ED50 [14]: 1790 nM
- ED50 [15]: 4940 nM
- ED50 [16]: 35000 nM
- ED50 [17]: 835 nM
- ED50 [18]: 20900 nM
- ED50 [19]: 120000 nM
- ED50 [20]: 0.314 nM
- ED50 [21]: 8.86 nM
- ED50 [22]: 3600 nM
- ED50 [23]: 5250 nM
- ED50 [24]: 62.5 nM
- ED50 [25]: 296 nM
- ED50 [26]: 30.5 nM
- ED50 [27]: 16 nM
- ED50 [28]: 9.35 nM
- ED50 [29]: 32900 nM
- ED50 [30]: 39400 nM
- ED50 [31]: 9320 nM
- ED50 [32]: 203 nM
- ED50 [33]: 60.3 nM
- ED50 [34]: 2360 nM
- ED50 [35]: 470 nM
- ED50 (Malectin (Homo sapiens)): 7050 nM
- ED50 [36]: 2470 nM
- ED50 [37]: 229 nM
- ED50 [38]: 928 nM
- ED50 [39]: 511000 nM
- ED50 [40]: 66.3 nM
- ED50 (Homo sapiens [41]): 481000 nM
- ED50 [42]: 1360 nM
- ED50 (Homo sapiens [43]): 6.06 nM
- ED50 [44]: 680 nM

SMILES: Cc1ccc(C(=O)Nc2cccc(C(F)(F)F)c2)cc1Nc1nc(-c2cccnc2)nc2c1cnn2C
- ED50 [1]: 4330 nM
- ED50 [2]: 8900 nM
- ED50 [3]: 3330 nM
- ED50 [4]: 270 nM
- ED50 [5]: 1.89 nM
- ED50 [6]: 8870 nM
- ED50 [7]: 2950 nM
- IC50 (Ephrin type-A receptor 1): 303 nM
- ED50 [8]: 37.8 nM
- ED50 [9]: 46800 nM
- ED50 [10]: 46500 nM
- ED50 [11]: 306 nM
- ED50 [12]: 127 nM
- ED50 [13]: 59200 nM
- ED50 [14]: 7620 nM
- ED50 [15]: 2.46 nM
- ED50 [16]: 442 nM
- ED50 [17]: 99 nM
- ED50 [18]: 14300 nM
- ED50 [19]: 3640 nM
- ED50 [20]: 665 nM
- ED50 [21]: 35500 nM
- ED50 [22]: 2.23 nM
- ED50 [23]: 176 nM
- ED50 [24]: 183 nM
- ED50 [25]: 22.5 nM
- ED50 [26]: 2730 nM
- ED50 [27]: 362 nM
- ED50 [28]: 655 nM
- ED50 [29]: 30700 nM
- ED50 [30]: 15.1 nM
- ED50 [31]: 6290 nM
- ED50 [32]: 460 nM
- ED50 [33]: 874 nM
- ED50 [34]: 120 nM
- ED50 [35]: 7650 nM
- ED50 (Malectin (Homo sapiens)): 95100 nM
- ED50 [36]: 116000 nM
- ED50 [37]: 3420 nM
- ED50 [38]: 813 nM
- ED50 [39]: 134 nM
- ED50 [40]: 17.7 nM
- ED50 (Homo sapiens [41]): 21.7 nM
- ED50 [42]: 21.5 nM
- ED50 (Homo sapiens [43]): 16800 nM
- ED50 [44]: 3110 nM
